Data from patent publication US20070129434A1, “Analgesics and methods of use” (priority 2002, published 2007).
“And” between values parts separate entries of the source, which are not always exact repeats. Equal entries are not always repeated. Structures can show the parent of a compound that is named as a salt.

How the values were obtained:
[1] = target: T1, rat α3β4 nAChRs (Rattus norvegicus, UniProt P04757+P12392); experiment: cell-based; assay type: cell-based; details: for IC50: inhibition of 86Rb+ efflux stimulated by 100 μM nicotine, KXα3β4R2 cells, mean ± standard error; for type of receptor blockade: nicotine concentration-response curves in presence of antagonist
T1 construct: expressed in transfected cells
T1 sequence (P04757 26-499): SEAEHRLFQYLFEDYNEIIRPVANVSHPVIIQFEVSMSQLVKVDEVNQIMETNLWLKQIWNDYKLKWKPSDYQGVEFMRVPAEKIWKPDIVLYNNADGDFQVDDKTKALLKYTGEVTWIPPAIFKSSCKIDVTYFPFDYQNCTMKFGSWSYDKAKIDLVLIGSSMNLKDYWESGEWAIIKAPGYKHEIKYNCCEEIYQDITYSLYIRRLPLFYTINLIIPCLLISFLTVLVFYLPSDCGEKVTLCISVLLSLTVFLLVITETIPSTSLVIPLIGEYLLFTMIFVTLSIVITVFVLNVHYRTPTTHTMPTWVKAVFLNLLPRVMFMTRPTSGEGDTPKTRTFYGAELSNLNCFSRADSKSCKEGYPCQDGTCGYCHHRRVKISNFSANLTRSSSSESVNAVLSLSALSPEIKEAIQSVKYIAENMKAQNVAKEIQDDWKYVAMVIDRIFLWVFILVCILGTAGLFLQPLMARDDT
T1 sequence (P12392 21-495): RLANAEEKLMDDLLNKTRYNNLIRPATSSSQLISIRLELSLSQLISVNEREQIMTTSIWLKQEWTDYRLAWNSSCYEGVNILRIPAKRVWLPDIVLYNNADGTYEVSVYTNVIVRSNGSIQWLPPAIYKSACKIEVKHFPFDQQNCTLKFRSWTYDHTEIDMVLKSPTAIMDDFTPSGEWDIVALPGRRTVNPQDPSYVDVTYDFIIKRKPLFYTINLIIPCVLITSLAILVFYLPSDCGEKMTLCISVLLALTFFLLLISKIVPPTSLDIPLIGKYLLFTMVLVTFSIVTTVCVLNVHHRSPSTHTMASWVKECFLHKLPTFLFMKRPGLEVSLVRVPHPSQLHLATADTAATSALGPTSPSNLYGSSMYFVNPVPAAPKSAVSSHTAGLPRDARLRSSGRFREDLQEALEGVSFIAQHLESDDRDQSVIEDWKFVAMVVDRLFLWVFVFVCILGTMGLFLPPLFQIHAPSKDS
Experimental: Cell Culture. The cell line KXα3β4R2 was established previously by stably cotransfecting human embryonic kidney-293 cells with the rat α3 and β4 nAChR subunits genes (Xiao et al., 1998). Cells were maintained in minimum essential medium supplemented with 10% fetal bovine serum, 100 units/ml penicillin G, […], and 0.7 mg/ml of geneticin (G418) at 37° C. with 5% CO2 in a humidified incubator.
^86Rb^+ Efflux Assay. Function of nAChRs expressed in the transfected cells was measured using a ^86Rb^+ efflux assay as described previously (Xiao et al., 1998). In brief, cells in the selection growth medium were plated into 24-well plates coated with poly(D-lysine). The plated cells were grown at 37° C. for 18 to 24 h to reach 70 to 95% confluence. The cells were then incubated in growth medium (0.5 ml/well) containing ^86Rb^+ (2 μCi/ml) for 4 h at 37° C. The loading mixture was then aspirated and the cells were washed three times with buffer (15 mM HEPES, 140 mM NaCl, 2 mM KCl, 1 mM MgSO4, 1.8 mM CaCl, 11 mM glucose, pH 7.4; 1 ml/well) for 30 s, 5 min, and 30 s, respectively. One milliliter of buffer, with or without compounds to be tested, was then added to each well. After incubation for 2 min, the assay buffer was collected for measurements of ^86Rb^+ released from the cells. Cells were then lysed by adding 1 ml of 100 mM NaOH to each well, and the lysate was collected for determination of the amount of ^86Rb^+ that was in the cells at the end of the efflux assay. Radioactivity of assay samples and lysates was measured by liquid scintillation counting. Total loading (cpm) was calculated as the sum of the assay sample and the lysate of each well. The amount of ^86Rb^+ efflux was expressed as a percentage of ^86Rb^+ loaded.
Experiments with antagonists were done in two different ways. […] EC50, Emax, and IC50, values were determined by nonlinear least-squares regression analyses (GraphPad, San Diego, Calif.).

[2] = tested on: Swiss-Webster mice; experiment: Warm-water tail-withdrawal nociception assay; assay type: in vivo; details: either enantiomer, 40 μg intracerebrally
Experimental: To confirm their suspicions that the compounds of the present invention, do in fact have an analgesic effect, the inventors experimented with mice. […] Each enantiomer of EDDP, in 40 μg doses, was administered intracerebrally to the mice. The animals were monitored for baseline sensitivity using the warm-water tail-withdrawal nociception assay and the latency to tail withdrawal was monitored as a measurement of analgesia. […] Thus, it is clear that the d-methadone metabolite EDDP has significant analgesic effect. Likewise, the metabolite EMDP and the structural analogs of both EDDP and EMDP are expected to do the same.

[3] = cited from earlier work
[4] = target: T2, α3β4 receptor agonist recognition sites (Rattus norvegicus, UniProt P04757+P12392); experiment: [3H]EB ligand binding in membrane homogenates from KXα3β4R2 cells
T2 construct: expressed in transfected cells
T2 sequence (P04757 26-499): as the sequence (P04757 26-499) above
T2 sequence (P12392 21-495): as the sequence (P12392 21-495) above
Text: Bound and free ligands were separated by vacuum filtration through Whatman GF/C filters treated with 0.5% polyethylenimine. […] Specific binding was defined as the difference between total binding and nonspecific binding.

[5] = tested on: morphine, methamphetamine, and nicotine self-administration; details: rats, 5-30 mg/kg; cited from earlier work
[6] = tested on: glutamate stimulated catecholamine release; assay type: cell-based, rat; details: 1 mM glutamate for 2 min, hippocampus and striatum slices; for block of glutamate stimulated catecholamine release: 10 μM
Experimental: The hippocampus and striatum are both important and well-studied anatomical areas of the brain. The hippocampus is associated with learning and memory functions while the striatus is linked to motor function. Slices were loaded with [^3H]norepinephrine or [^3H]dopamine and then exposed to 1 mM glutamate for 2 min in the absence or presence of MK-801, d-methadone or (+)-EDDP. The baseline release was measured in the absence of glutamate.

[7] = blocking nicotine-stimulated 86Rb+ efflux

For C/C=C1/N(C)C(C)CC1(c1ccccc1)c1ccccc1 (stereo not shown) [EDDP], the “potency relative to mecamylamine” value [1, 7] was “twice as potent”, the “potency relative to methadone” value [1, 7] was “about 5 times more potent” and the IC50 [1] was about 400 nM. For the same molecule, the tail withdrawal latency [2] was “increased” and the peak plasma concentration ([3]; following administration of methadone) was about 0.2 µM.
Work on CCC(=O)O[C@](Cc1ccccc1)(c1ccccc1)[C@H](C)CNC [Norpropoxyphene, (+)-α-N-norpropoxyphene maleate] yielded an IC50 [1] of 1800 ± 100 nM.
For CCC(=O)C(CC(C)N(C)C)(c1ccccc1)c1ccccc1 (racemic) [methadone, (O)-Methadone hydrochloride], the “block of nicotine-stimulated 86Rb+ efflux” value ([1]; 100 μM nicotine plus 200 μM methadone) was “completely blocked”, the IC50 [1] was about 2000 nM and the “increase of 86Rb+ efflux (agonist effect)” value ([1]; methadone alone at concentrations up to 1 mM) was “did not increase”. The “type of receptor blockade” value [1] was “noncompetitive mechanism”, the “competition for [3H]EB binding sites (in words)” value [4] was “does not compete effectively” and the steady-state plasma concentration ([3]; patients taking methadone chronically) was “exceed 1 μM”. For the same molecule, the “plasma concentration following a single dose” value ([3]; single dose of methadone) was “approximately 0.25 μM”.
For CCC(=O)C(C[C@@H](C)N(C)C)(c1ccccc1)c1ccccc1 [(−)-Methadone, R-(−)-methadone hydrochloride], the IC50 ([1]; hydrochloride) was 1900 nM and 2000 nM.
For CCC(=O)O[C@](Cc1ccccc1)(c1ccccc1)[C@H](C)CN(C)C [Propoxyphene, (+)-α-propoxyphene hydrochloride], the IC50 [1] was 2700 ± 400 nM.
With CN1CC[C@@]23CCCC[C@@H]2[C@@H]1Cc1ccc(O)cc13 [Dextrorphan] the IC50 [1] was 29600 ± 5700 nM.
For COc1ccc2c(c1)[C@]13CCCC[C@@H]1[C@H](C2)N(C)CC3 [Dextromethorphan], the IC50 [1] is given as 8900 ± 1100 nM and the “self-administration of morphine, methamphetamine, and nicotine” value [5] is given as “decrease”.
With “R-(+)-2-ethyl-1,5-dimethyl-3,3-diphenylpyrrolinium perchlorate [(+)-EDDP]” the IC50 [1] was 400 ± 200 nM, the “type of receptor blockade” value [1] was “noncompetitive blockers” and the “effect on glutamate stimulated catecholamine release” value ([6]; until 100 μM) was “no effect”.
Work on CCC1=[N+](C)[C@@H](C)CC1(c1ccccc1)c1ccccc1 [(−)-EDDP, S-(−)-2-ethyl-1,5-dimethyl-3,3-diphenylpyrrolinium perchlorate] yielded an IC50 [1] of 400 ± 100 nM.
For CN1CCCC1c1cccnc1 (stereo not shown) [nicotine], the “stimulation of 86Rb+ efflux over basal levels” value [1] was “approximately 10 fold”.
For CCC1=N[C@@H](C)CC1(c1ccccc1)c1ccccc1 [(−)-EMDP, S-(−)-2-ethyl-5-methyl-3,3-diphenyl-1-pyrroline hydrochloride], the IC50 [1] was 6300 ± 700 nM.
In the case of CCC(=O)C(C[C@H](C)N(C)C)(c1ccccc1)c1ccccc1.Cl [(+)-Methadone, S-(+)-methadone hydrochloride], the IC50 [1] is reported as 2500 ± 200 nM and the “block of glutamate stimulated catecholamine release” value [6] is reported as “partial block”.
With C[C@]12N[C@H](Cc3ccccc31)c1ccccc12 [MK-801] the IC50 [1] was 26600 ± 9600 nM and the “block of glutamate stimulated catecholamine release” value [6] was “partial block”.
For CC[C@H](OC(C)=O)C(C[C@H](C)N(C)C)(c1ccccc1)c1ccccc1.Cl [LAAM, (−)-α-acetylmethadol hydrochloride], the IC50 [1] was 2500 ± 400 nM and the “type of receptor blockade” value [1] was “noncompetitive blockers”.
CCC1=N[C@H](C)CC1(c1ccccc1)c1ccccc1 [(+)-EMDP, R-(+)-2-ethyl-5-methyl-3,3-diphenyl-1-pyrroline hydrochloride] gave an IC50 [1] of 5800 ± 1000 nM.
